Results reported in US10376520B2, “Methods for the treatment of cardiovascular disorders” (Galapagos NV, priority 2015, dated 2019).

Tested on: RA patients
Experiment: LDL determination, Study 2 (RA patients, monotherapy)
Format: in vivo, human
Settings: for [LDL] Mean CFB / [LDL] Median CFB: Study 2 12 weeks results, 50 mg q.d.
Description: Randomized, double-blind, placebo-controlled, multicenter, phase IIb dose finding study of Compound 1 (dosed as a [Compound 1:HCl:3H2O]) administered for 24 weeks as monotherapy to subjects with moderately to severely active rheumatoid arthritis who have an inadequate response to methotrexate alone
Double-blind, placebo-controlled, monotherapy study in subjects with moderately to severely active RA who have an inadequate response to methotrexate (MTX) (oral or parenteral).
280 subjects randomized to one of 3 doses of Compound 1 (dosed as a [Compound 1:HCl:3H2O]) or to placebo, given once daily (q.d.).
Twelve weeks of treatment with Compound 1 (dosed as a [Compound 1:HCl:3H2O]) at 50 mg, 100 mg, or 200 mg q.d.; or placebo. At Week 12, all subjects on placebo and the subjects on the 50 mg dose who have not achieved 20% improvement in swollen joint count (SJC66) and tender joint count (TJC68) will be assigned to 100 mg q.d. in a blinded fashion and will continue treatment until Week 24. Subjects in the other groups will maintain their randomized treatment until Week 24.
The determination of [LDL]-cholesterol is made using an automated method taking advantage of the selective micellary solubilization of [LDL]-cholesterol by a nonionic detergent and the interaction of a sugar compound and lipoproteins (VLDL and chylomicrons).
When a detergent is included in the enzymatic method for cholesterol determination (cholesterol esterase, cholesterol oxidase coupling reaction), the relative reactivities of cholesterol in the lipoprotein fractions increase in this order: [HDL]<chylomicrons <VLDL <[LDL]. In the presence of Mg^2+, a sugar compound markedly reduces the enzymatic reaction of the cholesterol measurement in VLDL and chylomicrons. The combination of a sugar compound with detergent enables the selective determination of [LDL]-cholesterol in serum. (Friedewald et al., 1972; Rifai et al., 1992)
Homogeneous enzymatic colorimetric assay.
In the presence of peroxidase, the hydrogen peroxide generated reacts with 4-aminoantipyrine and Sodium N-(2-hydroxy-3-sulfopropyl)-3,5-dimethoxyaniline (HSDA) to form a purple-blue dye.
The color intensity of this dye is directly proportional to the cholesterol concentration and is measured photometrically.
Human serum and plasma samples [LDL] determination was done on a Roche/Hitachi Cobas c 701/702 system which automatically calculate the analyte concentration of each sample. Samples containing precipitates are centrifuged before performing the assay.

O=C(Nc1nc2cccc(-c3ccc(CN4CCS(=O)(=O)CC4)cc3)n2n1)C1CC1 [Compound 1, cyclopropanecarboxylic acid {5-[4-(1,1-dioxo-thiomorpholin-4-ylmethyl)-phenyl]-[1,2,4]triazolo[1,5-a]pyridin-2yl}-amide]
[LDL] Median percentage CFB - 12 weeks results (100 mg q.d., week 4): 5.08% | [LDL] Median percentage CFB - 24 weeks results (100 mg q.d., week 4): 5.08% | [LDL] Mean percentage CFB - 12 weeks results (100 mg q.d., week 8): 7.39% | [LDL] Mean percentage CFB - 24 weeks results (100 mg q.d., week 8): 7.39% | [LDL] Median percentage CFB - 12 weeks results (100 mg q.d., week 8): 5.34% | [LDL] Median percentage CFB - 24 weeks results (100 mg q.d., week 8): 5.34% | [LDL] Mean percentage CFB - 12 weeks results (100 mg q.d., week 12): 14.31% | [LDL] Mean percentage CFB - 24 weeks results (100 mg q.d., week 12): 14.31% | [LDL] Median percentage CFB - 12 weeks results (100 mg q.d., week 12): 5.78% | [LDL] Median percentage CFB - 24 weeks results (100 mg q.d., week 12): 5.78% | [LDL] Mean percentage CFB - 24 weeks results (100 mg q.d., week 16): 12.10% | [LDL] Median percentage CFB - 24 weeks results (100 mg q.d., week 16): 7.81% | [LDL] Mean percentage CFB - 24 weeks results (100 mg q.d., week 20): 12.84% | [LDL] Median percentage CFB - 24 weeks results (100 mg q.d., week 20): 7.74% | [LDL] Mean percentage CFB - 24 weeks results (100 mg q.d., week 24): 14.01% | [LDL] Median percentage CFB - 24 weeks results (100 mg q.d., week 24): 9.61% | [LDL] Mean percentage CFB - 12 weeks results (200 mg q.d., week 1): 8.06% | [LDL] Mean percentage CFB - 24 weeks results (200 mg q.d., week 1): 8.06% | [LDL] Median percentage CFB - 12 weeks results (200 mg q.d., week 1): 6.59% | [LDL] Median percentage CFB - 24 weeks results (200 mg q.d., week 1): 6.59% | [LDL] Mean percentage CFB - 12 weeks results (200 mg q.d., week 2): 8.39% | [LDL] Mean percentage CFB - 24 weeks results (200 mg q.d., week 2): 8.39% | [LDL] Median percentage CFB - 12 weeks results (200 mg q.d., week 2): 5.81% | [LDL] Median percentage CFB - 24 weeks results (200 mg q.d., week 2): 5.81% | [LDL] Mean percentage CFB - 12 weeks results (200 mg q.d., week 4): 9.99% | [LDL] Mean percentage CFB - 24 weeks results (200 mg q.d., week 4): 9.99% | [LDL] Median percentage CFB - 12 weeks results (200 mg q.d., week 4): 10.14% | [LDL] Median percentage CFB - 24 weeks results (200 mg q.d., week 4): 10.14% | [LDL] Mean percentage CFB - 12 weeks results (200 mg q.d., week 8): 9.80% | [LDL] Mean percentage CFB - 24 weeks results (200 mg q.d., week 8): 9.80% | [LDL] Median percentage CFB - 12 weeks results (200 mg q.d., week 8): 8.13% | [LDL] Median percentage CFB - 24 weeks results (200 mg q.d., week 8): 8.13% | [LDL] Mean percentage CFB - 12 weeks results (200 mg q.d., week 12): 16.80% | [LDL] Mean percentage CFB - 24 weeks results (200 mg q.d., week 12): 16.80% | [LDL] Median percentage CFB - 12 weeks results (200 mg q.d., week 12): 11.50% | [LDL] Median percentage CFB - 24 weeks results (200 mg q.d., week 12): 11.50% | [LDL] Mean percentage CFB - 24 weeks results (200 mg q.d., week 16): 12.24% | [LDL] Median percentage CFB - 24 weeks results (200 mg q.d., week 16): 9.19% | [LDL] Mean percentage CFB - 24 weeks results (200 mg q.d., week 20): 14.33% | [LDL] Median percentage CFB - 24 weeks results (200 mg q.d., week 20): 10.33% | [LDL] Median percentage CFB - 24 weeks results (200 mg q.d., week 24): 13.81% | [LDL] Mean CFB (week 1): 0.011 mmol/L | [LDL] Median CFB (week 1): 0.005 mmol/L | [LDL] Mean CFB (week 2): -0.057 mmol/L | [LDL] Median CFB (week 2): -0.040 mmol/L | [LDL] Mean CFB (week 4): 0.047 mmol/L | [LDL] Median CFB (week 4): 0.025 mmol/L | [LDL] Mean CFB (week 8): 0.142 mmol/L | [LDL] Median CFB (week 8): 0.130 mmol/L
